Assay results reported in US20110105623A1 (Biogenic Innovations, LLC, priority 2009, published 2011).

Test system: Chlorella sorokiniana
Experiment: Algal growth by percent transmittance at 750 nm
Format: cell-based
Procedure: Two species of Chlorella were examined for growth—Chlorella sorokiniana a freshwater species and Chlorella minutissima a marine species. […] Growth was measured on day 0, 1, 2, 3, 4, 5, 6, 7, 8, 9 and 10. […] The following media were purchased from UTEX Culture Collection of Algae: Enriched Salt Water Medium and Volvox Dextrose Medium.
The algae were grown for 48 hours in the appropriate medium. The initial suspension was enumerated for each alga and is referred to as the starting inoculums. Chlorella sorokiniana was at 381 million cells per milliliter and Chlorella minutissima was at 19 million cells per milliliter. One milliliter of the algal solution was placed into 9 mLs of medium and mixed by vortexing. […] The tube of algae and MSM were incubated at room temperature with exposure to sunlight. […] Each dilution of MSM for each organism was set up in and analyzed in triplicate for each time interval measured. The samples were measured by percent transmittance on a UV/VIS spectrophotometer at wavelength 750 nm. The medium stock was tested for percent transmittance background levels at every time interval were measured. The lower percent transmittance indicated a higher growth factor.

Substance: Methylsulfonylmethane [MSM]
- Growth, percent transmittance at 750 nm (MSM 0.5%, Sample Day 0): 47.3%
- Growth, percent transmittance at 750 nm (MSM 0.5%, Sample Day 1): 41.8%
- Growth, percent transmittance at 750 nm (MSM 0.5%, Sample Day 2): 29.3%
- Growth, percent transmittance at 750 nm (MSM 0.5%, Sample Day 3): 29.6%
- Growth, percent transmittance at 750 nm (MSM 0.5%, Sample Day 4): 19.0%
- Growth, percent transmittance at 750 nm (MSM 0.5%, Sample Day 5): 12.4%
- Growth, percent transmittance at 750 nm (MSM 0.5%, Sample Day 6): 12.5%
- Growth, percent transmittance at 750 nm (MSM 0.5%, Sample Day 7): 11.9%
- Growth, percent transmittance at 750 nm (MSM 0.5%, Sample Day 8): 12.2%
- Growth, percent transmittance at 750 nm (MSM 0.5%, Sample Day 9): 7.5%
- Growth, percent transmittance at 750 nm (MSM 0.5%, Sample Day 10): 6.4%
- Growth, percent transmittance at 750 nm (MSM 1%, Sample Day 0): 48.7%
- Growth, percent transmittance at 750 nm (MSM 1%, Sample Day 1): 42.5%
- Growth, percent transmittance at 750 nm (MSM 1%, Sample Day 2): 37.5%
- Growth, percent transmittance at 750 nm (MSM 1%, Sample Day 3): 37.5%
- Growth, percent transmittance at 750 nm (MSM 1%, Sample Day 4): 17.3%
- Growth, percent transmittance at 750 nm (MSM 1%, Sample Day 5): 13.5%
- Growth, percent transmittance at 750 nm (MSM 1%, Sample Day 6): 13.0%
- Growth, percent transmittance at 750 nm (MSM 1%, Sample Day 7): 12.5%
- Growth, percent transmittance at 750 nm (MSM 1%, Sample Day 8): 12.4%
- Growth, percent transmittance at 750 nm (MSM 1%, Sample Day 9): 7.8%
- Growth, percent transmittance at 750 nm (MSM 1%, Sample Day 10): 6.6%
- Growth, percent transmittance at 750 nm (MSM 5%, Sample Day 0): 35.6%
- Growth, percent transmittance at 750 nm (MSM 5%, Sample Day 1): 31.2%
- Growth, percent transmittance at 750 nm (MSM 5%, Sample Day 2): 27.4%
- Growth, percent transmittance at 750 nm (MSM 5%, Sample Day 3): 21.4%
- Growth, percent transmittance at 750 nm (MSM 5%, Sample Day 4): 18.2%
- Growth, percent transmittance at 750 nm (MSM 5%, Sample Day 5): 15.7%
- Growth, percent transmittance at 750 nm (MSM 5%, Sample Day 6): 15.9%
- Growth, percent transmittance at 750 nm (MSM 5%, Sample Day 7): 16.3%
- Growth, percent transmittance at 750 nm (MSM 5%, Sample Day 8): 17.0%
- Growth, percent transmittance at 750 nm (MSM 5%, Sample Day 9): 13.7%
- Growth, percent transmittance at 750 nm (MSM 5%, Sample Day 10): 12.8%
- Growth, percent transmittance at 750 nm (MSM 10%, Sample Day 0): 31.2%
- Growth, percent transmittance at 750 nm (MSM 10%, Sample Day 1): 31.3%
- Growth, percent transmittance at 750 nm (MSM 10%, Sample Day 2): 29.7%
- Growth, percent transmittance at 750 nm (MSM 10%, Sample Day 3): 28.4%
- Growth, percent transmittance at 750 nm (MSM 10%, Sample Day 4): 29.0%
- Growth, percent transmittance at 750 nm (MSM 10%, Sample Day 5): 28.7%
- Growth, percent transmittance at 750 nm (MSM 10%, Sample Day 6): 27.1%
- Growth, percent transmittance at 750 nm (MSM 10%, Sample Day 7): 27.6%
- Growth, percent transmittance at 750 nm (MSM 10%, Sample Day 8): 27.1%
- Growth, percent transmittance at 750 nm (MSM 10%, Sample Day 9): 76.4%
- Growth, percent transmittance at 750 nm (MSM 10%, Sample Day 10): 93.8%
- Growth, percent transmittance at 750 nm (MSM 20%, Sample Day 0): 19.3%
- Growth, percent transmittance at 750 nm (MSM 20%, Sample Day 1): 21.9%
- Growth, percent transmittance at 750 nm (MSM 20%, Sample Day 2): 24.1%
- Growth, percent transmittance at 750 nm (MSM 20%, Sample Day 3): 28.1%
- Growth, percent transmittance at 750 nm (MSM 20%, Sample Day 4): 31.4%
- Growth, percent transmittance at 750 nm (MSM 20%, Sample Day 5): 33.6%
- Growth, percent transmittance at 750 nm (MSM 20%, Sample Day 6): 36.8%
- Growth, percent transmittance at 750 nm (MSM 20%, Sample Day 7): 40.6%
- Growth, percent transmittance at 750 nm (MSM 20%, Sample Day 8): 40.8%
- Growth, percent transmittance at 750 nm (MSM 20%, Sample Day 9): 84.8%
- Growth, percent transmittance at 750 nm (MSM 20%, Sample Day 10): 96.7%
- Growth, percent transmittance at 750 nm (MSM […], Sample Day 0): 40.6%
- Growth, percent transmittance at 750 nm (MSM […], Sample Day 1): 43.1%
- Growth, percent transmittance at 750 nm (MSM […], Sample Day 2): 44.9%
- Growth, percent transmittance at 750 nm (MSM […], Sample Day 3): 43.8%
- Growth, percent transmittance at 750 nm (MSM […], Sample Day 4): 26.1%
- Growth, percent transmittance at 750 nm (MSM […], Sample Day 5): 10.3%
- Growth, percent transmittance at 750 nm (MSM […], Sample Day 6): 10.9%
- Growth, percent transmittance at 750 nm (MSM […], Sample Day 7): 11.0%
- Growth, percent transmittance at 750 nm (MSM […], Sample Day 8): 11.2%
- Growth, percent transmittance at 750 nm (MSM […], Sample Day 9): 8.4%
- Growth, percent transmittance at 750 nm (MSM […], Sample Day 10): 6.0%
